Measurements reported in patent publication US20250127743A1, “USE OF BRANCHED CHAIN FATTY ACIDS (BCFAS) FOR THE TREATMENT OF INTESTINAL INFLAMMATION” (priority 2021, published 2025).
Like-named read-outs stand apart in the source and are kept apart here.

Tests used:
[1] = tested on: proteins conjugated to SUMO2/3 in CACO2 cells; test: Immunoblot quantification of SUMO2/3-conjugated proteins (above 50 kDa) in CACO2 cells; type: cell-based; details: for effect of ROS scavenger preincubation on BCFAs-induced hyperSUMOylation: 30 min pre-incubation with 5 mM NAC or 10 μM DPI, then 1h 5 mM isobutyric or isovaleric acid
Experimental: (§1) CACO2 and HeLa cells were cultivated in Minimum Essential Medium (MEM) (Eurobio) supplemented with 2 mM L-Glutamine (Invitrogen), 10% Fetal Bovine Serum (FBS, Eurobio), non-essential aminoacids (Sigma), 1 mM sodium pyruvate (Gibco) and a mixture of penicillin (10000 U/mL) and streptomycin (10 mg/mL). […] CACO2 and T84 cells were seeded in wells at a density of 1.1×10^5 cells/cm^2 and 1.7×10^5 cells/cm^2, respectively, the day before incubation with BCFAs or SCFAs.
(§2) Before treatments, cell culture medium was replaced by HBSS (Hanks' Balanced Salt Solution; Sigma). Cells were then treated as indicated in the text and directly lysed with Laemmli buffer. For BCFAs and SCFAs treatments, 100 mM stock solutions in water were first prepared from the corresponding acidic form (e.g. isobutyric acid) or from the sodium salt of the corresponding basic form (e.g. sodium isobutyrate) and then further diluted in cell culture media (HBSS). When needed, the pH of cell culture medium was set using either 0.1 M NaOH or 0.1 M HCl solution. […] For TNFα treatments, CACO2 cells were first incubated with BCFAs or SCFAs for 1 hour and then incubated with 100 ng/mL recombinant human TNFα (PeproTech). For immunoblotting and qRT-PCR analyses, cells were lysed after 30 min or 1h of incubation with TNFα, respectively. For Transepithelial electrical resistance (TEER) measurements, cells were incubated for 24 h with TNFα. Viability of cells incubated with HBSS at various pH or with BCFAs was assessed using the CellTiter-Glo® luminescent cell viability assay (Promega), according to the manufacturer's protocol.
(§3) Cell lysates and protein extracts from intestinal tissues in Laemmli buffer were boiled for 5 min, sonicated and protein content was resolved using SDS-polyacrylamide gel electrophoresis. Proteins were then transferred on PVDF membranes (GE Healthcare) and detected after incubation with specific antibodies using ECL Clarity Western blotting Substrate (BioRad). […] Quantifications of proteins were performed on a ChemiDoc Imaging System (Bio-rad). SUMO2/3-conjugated proteins levels (above 50 kDa), SUMO1-conjugated protein levels (above 50 kDa), and other specific protein levels were normalized either by the level of total proteins above 50 kDa (determined using the TGX-stain free imaging technology; Bio-rad) or by the level of actin in each lysate.

HeLa cells = HeLa cells (Kumar et al., 2009); cited from earlier work
IκBα = test: Immunoblot of IκBα levels in TNFα-stimulated CACO2 cells; type: cell-based; details: 1 hour pre-incubation with 5 mM, then 30 min 100 ng/mL TNFα
Experimental: as §2, §3

[2] = tested on: IEC-6 intestinal epithelial cells; details: IEC-6 intestinal epithelial cells (Kumar et al., 2009); cited from earlier work
[3] = tested on: cullin-1 neddylation in HeLa cells; details: HeLa cells (Kumar et al., 2007; Kumar et al., 2009); cited from earlier work
CACO2 cells [4] = test: Luminol-based ROS detection assay in CACO2 cells; type: cell-based; details: for ROS production: 1h of incubation; for level of ROS: 5h of incubation, compared with 1h
Experimental: Luminol was dissolved in NaOH 0.1 M to obtain a 50 mM stock solution. A stock solution of 1000 U/mL HRP (HorseRadish Peroxidase) was prepared in parallel in PBS (Phosphate-Buffered Saline). After treatment with BCFAs or SCFAs or incubation in HBSS at pH 5.2, CACO2 and HeLa culture media were collected and centrifugated for 5 min at 13,000×g at room temperature. The pH of these culture media was then buffered to 7.5 to avoid pH-dependent interferences with luminol activity. Luminol (1 mM final concentration) and HRP (4 U/mL) were finally added to each culture media and luminescence was quantified immediately on a luminometer (Tecan).

CCL20 = test: qRT-PCR of CCL20 mRNA in TNFα-stimulated CACO2 cells; type: cell-based; details: 1 hour pre-treatment, then 1 hour 100 ng/mL TNFα
Experimental: as §2, with “For Transepithelial electrical resistance (TEER) measurements, cells were incubated for 24 h with TNFα.” left out
(§4) Total RNAs were extracted from CACO2 cells using the RNeasy Plus Mini kit (Qiagen) following manufacturer's instructions. […] Specific cDNAs were then quantified by qPCR using Itaq Universal SYBR Green Supermix (BioRad) on a Mastercycler ep Realplex system (Eppendorf, Hamburg, Germany). […]

CACO2 cells [5] = test: Transepithelial electrical resistance (TEER) of differentiated CACO2 monolayers with TNFα; type: cell-based; details: differentiated CACO2 in Transwell, 1 hour pre-treatment, then 24 hours 100 ng/mL TNFα
Experimental: CACO2 cells were seeded in Transwell inserts and cultivated for 21 days. Monolayer formation and differentiation was monitored by daily evaluation of transepithelial electrical resistance (TEER) measurement, performed with an EVOM epithelial voltohm meter equipped with “chopstick” electrodes. After three weeks, cell culture media were replaced by HBSS. Cells were then preincubated or not with isobutyric or isovaleric acids for 1 hour. 100 ng/mL TNFα was then added to both apical and basolateral compartments. TEER was evaluated after 24h of incubation.

[6] = tested on: cullin-1 neddylation in HeLa cells; test: Cullin-1 neddylation in HeLa cells; type: cell-based; details: 5h of incubation
Experimental: as §1, §3

T84 cells = test: Intracellular pH (BCECF-AM) in T84 cells; details: 5 mM
Experimental: CACO2 and T84 cells, grown in 96-well plates were loaded with 2 μM BCECF-AM (2′,7′-Bis-(2-Carboxyethyl)-5-(and-6)-Carboxyfluorescein, Acetoxymethyl Ester; Invitrogen) for 30 min in HBSS at 37° C. […] Cells were then washed twice and incubated in HBSS with or without BCFAs or with HBSS at definite pH. Cell fluorescence (λEmission535 nm) was recorded at two different excitation wavelengths: 440 nm and 490 nm. Comparison of the ratios of fluorescence intensities (490/440 nm) was performed to detect changes in intracellular pH. Calibration solutions (with pH ranging from 4.5 to 7.5) were used as controls (Intracellular pH Calibration Buffer Kit; Molecular Probes).

CACO2 cells [7] = test: Intracellular pH (BCECF-AM) in CACO2 cells; type: cell-based; details: 5 mM
[8] = pH and acid/base forms of BCFA in HBSS medium; type: physicochemical; details: 5 mM added to HBSS medium
Experimental: as §2
BCFAs are weak organic acids, which exist in solution either as acidic (R—COOH) or basic (R—COO^−) forms.

[9] = tested on: proteins conjugated to SUMO2/3 in T84 cells; test: Immunoblot of SUMO2/3-conjugated proteins in T84 cells; type: cell-based; details: 5 mM, 1h of incubation
Experimental: as §1
Before treatments, cell culture medium was replaced by HBSS (Hanks' Balanced Salt Solution; Sigma). Cells were then treated as indicated in the text and directly lysed with Laemmli buffer. […] Viability of cells incubated with HBSS at various pH or with BCFAs was assessed using the CellTiter-Glo® luminescent cell viability assay (Promega), according to the manufacturer's protocol.
Cell lysates and protein extracts from intestinal tissues in Laemmli buffer were boiled for 5 min, sonicated and protein content was resolved using SDS-polyacrylamide gel electrophoresis. Proteins were then transferred on PVDF membranes (GE Healthcare) and detected after incubation with specific antibodies using ECL Clarity Western blotting Substrate (BioRad). […] Quantifications of proteins were performed on a ChemiDoc Imaging System (Bio-rad). […]

IL8 = test: qRT-PCR of IL8 mRNA in TNFα-stimulated CACO2 cells; type: cell-based; details: 1 hour pre-treatment, then 1 hour 100 ng/mL TNFα
Experimental: as §2, with “For Transepithelial electrical resistance (TEER) measurements, cells were incubated for 24 h with TNFα.” left out
as §4

SAE1/SAE2 or UBC9 = test: Immunoblot of E1 and E2 SUMO enzyme levels in CACO2 cells; type: cell-based
Experimental: as §3

deSUMOylases = test: DeSUMOylase activity assay (SUMO-AMC cleavage) in lysates of treated CACO2 and T84 cells; type: cell-based; details: 5 mM for 5 h, cell lysates
Experimental: For in vitro cell lines, CACO2 and T84 cells grown in 12-well plates were scraped in 100 μL lysis buffer (Tris HCl pH 8.0 50 mM, EDTA 5 mM, NaCl 200 mM, Glycerol 10%, NP40 0.5%). For in vivo tissues, caecal segments were resuspended in lysis buffer (800 μL for 100 mg of tissues), mechanically lysed using bead beating and further diluted 25 times in lysis buffer. Negative controls were prepared by adding 10 mM N-ethymaleimide (NEM; Sigma-Aldrich) to cell lysates. Recombinant human SUMO1-AMC and SUMO2-AMC proteins (R&D Systems) were diluted in parallel to 500 nM in Assay buffer (Tris HCl pH 8.0 50 mM, Bovine Serum Albumin (BSA) 100 μg/mL, Dithiothreitol (DTT) 10 mM). For each measurement, 10 μL of cell or tissue lysates were mixed with 40 μL of SUMO-AMC containing Assay buffer and fluorescence (λEx=380 nm; λEm=460 nm) was recorded for 30 min at 37° C. on a Flexstation 3 microplate reader (Molecular Devices). DeSUMOylase activities were determined by calculating the initial rate of fluorescence emission in each lysate and by normalizing by the quantity of proteins in the corresponding sample, determined in parallel using BCA assays (Pierce™ BCA Protein Assay Kit).

In the case of c1ccc2c(c1)[I+]c1ccccc1-2 [DPI, Diphenyleneiodonium], the “effect of ROS scavenger preincubation on BCFAs-induced hyperSUMOylation” value ([1]; CACO2 cells) is reported as “significantly block”.

For CC(=O)N[C@@H](CS)C(=O)O [NAC, N-acetyl cysteine], the “effect of ROS scavenger preincubation on BCFAs-induced hyperSUMOylation” value ([1]; CACO2 cells) was “significantly block”.

For CC(=O)O [acetic acid], the “level of SUMO2/3-conjugated proteins” value [1] was “significant increase”.

In the case of CCCC(=O)O [butyric acid], the ROS production (HeLa cells) is listed as “induce ROS”, the “TNFα-triggered degradation of IκBα” value (IκBα) is listed as “block” and the “level of SUMO2/3-conjugated proteins” value ([1]; CACO2 cells, 5h, pH~5.2, 5 mM final concentration) is listed as “significant increase”. The ROS production [2] was “induce ROS”, the cullin-1 neddylation [3] was “trigger the loss of cullin-1 neddylation” and the ROS production (CACO2 cells [4]) was “induce ROS production”. For the same compound, the “level of ROS” value (CACO2 cells [4]) was “less important”.

With CC(C)C(=O)O [isobutyric acid] the “CCL20 mRNA expression in response to TNFα” value (CCL20) was “downregulate”, the “TNFα-triggered degradation of IκBα” value (IκBα) was “block” and the “level of proteins conjugated to SUMO2/3” value ([1]; CACO2 cells, 5 mM, 1h or 5h of incubation) was “significant increase”. The “TNFα-induced increase in epithelial permeability (TEER)” value (CACO2 cells [5]) was “block”, the cullin-1 neddylation [6] was “triggers cullin-1 deneddylation” and the “intracellular pH (pHi)” value (T84 cells) was “significant decrease”. The “intracellular pH (pHi)” value (CACO2 cells [7]) was “significant decrease”, the “concentration present as isobutyrate” value [8] was ~3500 µM and the “concentration present as isobutyric acid” value [8] was ~1500 µM. The “pH of HBSS medium after addition” value [8] was ~5.2, the “proportion present as isobutyrate” value [8] was ~72% and the “proportion present as isobutyric acid” value [8] was ~28%. The “hyperSUMOylation (SUMO2/3-conjugated proteins)” value [9] was “hyperSUMOylation is similarly observed”, the “IL8 mRNA expression in response to TNFα” value (IL8) was “downregulate” and the “level of SAE1/SAE2 or UBC9” value (SAE1/SAE2 or UBC9) was “do not alter”. The ROS production (CACO2 cells [4]) was “induce ROS production”, the “level of ROS” value (CACO2 cells [4]) was “less important” and the “initial rate of SUMO deconjugation, SUMO1-AMC substrate” value (deSUMOylases) was “significantly decrease”. The “initial rate of SUMO deconjugation, SUMO2-AMC substrate” value (deSUMOylases) was “significantly decrease”.
